# Results published in patent publication US11535630B2, “Apelin receptor (APJ) agonists and uses thereof” (Research Triangle Institute, priority 2015, dated 2022).
# Target: T1, apelin receptor (APJ) (Homo sapiens, UniProt P35414)
# T1 sequence (P35414 1-380): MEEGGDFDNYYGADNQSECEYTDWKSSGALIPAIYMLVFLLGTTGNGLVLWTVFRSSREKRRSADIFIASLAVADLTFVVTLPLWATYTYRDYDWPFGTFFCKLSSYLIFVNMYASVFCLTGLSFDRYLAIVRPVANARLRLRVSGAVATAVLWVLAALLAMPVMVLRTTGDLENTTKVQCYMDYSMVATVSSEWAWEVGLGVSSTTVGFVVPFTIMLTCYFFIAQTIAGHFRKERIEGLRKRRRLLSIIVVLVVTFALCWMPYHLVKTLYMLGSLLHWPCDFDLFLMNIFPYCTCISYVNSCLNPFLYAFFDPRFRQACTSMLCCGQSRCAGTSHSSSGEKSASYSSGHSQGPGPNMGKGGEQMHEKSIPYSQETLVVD
# Test: In vitro apelin agonist activity (methods of Giddings et al., Apelin-13 as positive control)
# Format: cell-based
# Conditions: in vitro apelin agonist activity, methods of Giddings et al., Apelin-13 as positive control; read-out: EC50 (nM) Ave
# Source text: Characterization of the Apelin Agonist Activity of the Compounds
# 1:39-47, the contents of which are hereby incorporated by reference in its entirety. Using the methods described in Giddings et al. and Apelin-13 as a positive control.
row,EC50 [nM],SMILES
1,45,"O=C(C[C@H](CCN1CCCCC1)NC(=O)c1cc(-c2ccccc2C(F)(F)F)n(C2CCCC2)n1)NC1CC(F)(F)C1 [compound 520, (3S)-3-({1-cyclopentyl-5-[2-(trifluoromethyl)phenyl]-1H-pyrazol-3-yl}formamido)-N-(3,3-difluorocyclobutyl)-5-(piperidin-1-yl)pentanamide]"
2,> 10000,"COc1cccc(OC)c1-c1cc(C(=O)N[C@@H](CCN2CCOCC2)CC(=O)OC(C)(C)C)nn1C1CCCC1 [compound 303, tert-butyl (3S)-3-{[1-cyclopentyl-5-(2,6-dimethoxyphenyl)-1H-pyrazol-3-yl]formamido}-5-(morpholin-4-yl)pentanoate]"
3,474,"CN1CC(NC(=O)C[C@H](CCc2ccc(F)cc2)NC(=O)c2cc(-c3ccccc3C(F)(F)F)n(C3CCCC3)n2)C1 [compound 482, (3S)-3-({1-cyclopentyl-5-[2-(trifluoromethyl)phenyl]-1H-pyrazol-3-yl}formamido)-5-(4-fluorophenyl)-N-(1-methylazetidin-3-yl)pentanamide]"
4,1240,O=C(O)C[C@H](CCc1ccc(F)cc1)NC(=O)c1cc(-c2ccccc2C(F)(F)F)n(C2CCCC2)n1 [compound 463]
5,12.5,"CCc1ccccc1-c1cc(C(=O)N[C@@H](CCN2CCC(F)(F)CC2)CC(=O)Nc2nccs2)nn1C1CCCC1 [compound 409, (3S)-3-{[1-cyclopentyl-5-(2-ethylphenyl)-1H-pyrazol-3-yl]formamido}-5-(4,4-difluoropiperidin-1-yl)-N-(1,3-thiazol-2-yl)pentanamide]"
6,17.5,"O=C(C[C@H](CCN1CCC(F)(F)CC1)NC(=O)c1cc(-c2ccccc2C(F)(F)F)n(C2CCCC2)n1)Nc1nccs1 [compound 430, (3S)-3-({1-cyclopentyl-5-[2-(trifluoromethyl)phenyl]-1H-pyrazol-3-yl}formamido)-5-(4,4-difluoropiperidin-1-yl)-N-(1,3-thiazol-2-yl)pentanamide]"
7,> 10000,"CCN(C(=O)c1cc(-c2c(F)cccc2OC)n(C2CCCC2)n1)[C@@H](CCN1CCCCC1)CC(=O)NC1CCC1 [compound 345, (3S)-N-cyclobutyl-3-{1-[1-cyclopentyl-5-(2-fluoro-6-methoxyphenyl)-1H-pyrazol-3-yl]-N-ethylformamido}-5-(piperidin-1-yl)pentanamide]"
8,> 10000,"CCN(C(=O)c1cc(-c2c(OCC(F)(F)F)cccc2OCC(F)(F)F)n(C2CCCC2)n1)[C@@H](CCN1CCCCC1)CC(=O)NC1CCC1 [compound 342, (3S)-3-(1-{5-[2,6-bis(2,2,2-trifluoroethoxy)phenyl]-1-cyclopentyl-1H-pyrazol-3-yl}-N-ethylformamido)-N-cyclobutyl-5-(piperidin-1-yl)pentanamide]"
9,310,"O=C(O)C[C@H](CCN1CC2CCC(C1)C2(F)F)NC(=O)c1cc(-c2ccccc2C(F)(F)F)n(C2CCCC2)n1 [compound 606, (3S)-3-({1-cyclopentyl-5-[2-(trifluoromethyl)phenyl]-1H-pyrazol-3-yl}formamido)-5-{8,8-difluoro-3-azabicyclo[3.2.1]octan-3-yl}pentanoic acid]"
10,1220,"O=C(C[C@H](CCN1CCCC(F)(F)C1)NC(=O)c1cc(-c2cnccc2Cl)n(C2CCCC2)n1)NC1CCC1 [compound 466, (3S)-3-{[5-(4-chloropyridin-3-yl)-1-cyclopentyl-1H-pyrazol-3-yl]formamido}-N-cyclobutyl-5-(3,3-difluoropiperidin-1-yl)pentanamide]"
11,> 10000,"COc1cccc(OC)c1-c1cc(C(=O)N[C@@H](CCNCc2ccncc2)CC(=O)OC(C)(C)C)nn1C1CCCC1 [compound 306, tert-butyl (3S)-3-{[1-cyclopentyl-5-(2,6-dimethoxyphenyl)-1H-pyrazol-3-yl]formamido}-5-[(pyridin-4-ylmethyl)amino]pentanoate]"

row,SMILES,EC50 [nM]
1,"CC(C)C[C@H](NC(=O)c1cc(-c2ccccc2C(F)(F)F)n(C2CCCC2)n1)C(=O)O [compound 527, (2S)-2-({1-cyclopentyl-5-[2-(trifluoromethyl)phenyl]-1H-pyrazol-3-yl}formamido)-4-methylpentanoic acid]",> 10000
